Results: patent US8895585B2, “Nicotinamide derivative or salt thereof” (FUJIFILM Corporation, priority 2010, dated 2014)

Experiments:
THP-1 cells = experiment: TNFα generation assay; format: cell-based, human; conditions: Homo sapiens, THP-1, THP-1 cells; Table 22; read-out: IC50 in TNFα generation assay
Method in brief: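 Secreted TNFα in supernatant quantified by ELISA or AlphaLISA after 7 h culture on human IgG-coated wells (10 μg/ml coating). Cells were IFN-γ-differentiated THP-1 (10 ng/ml, 2 days), exposed to compound for 30 min at room temperature before plating.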

[1] = biological target: T1, glutathione S-transferase (GST)-fused full-length human Syk protein (Homo sapiens, UniProt P43405); experiment: Syk enzyme assay; format: biochemical; conditions: Syk enzyme assay, Test Example 1; read-out: IC50 of Syk-inhibitory activity
T1 construct: (GST)-fused full-length human Syk protein; GST (glutathione S-transferase); purchased Carna Biosciences
Method in brief: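 GST-tagged full-length human Syk (baculovirus) preincubated with compound 15 min at room temperature (pH 7.0, 10 mM MgCl2), then reacted 40 min with 0.4 μM biotinylated peptide substrate and 27 μM ATP (final). Phosphorylation read by HTRF (615/665 nm) after EDTA stop; IC50 reported.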

| SMILES | IC50 (THP-1 cells) [nM] | IC50 [1] [nM] |
| --- | --- | --- |
| CCC[C@@H](Nc1nc(Nc2cnc3ccc(OC)cc3c2)c(C(N)=O)cc1F)[C@H](C)N [Example 006-242, 6-(((2S,3R)-2-aminohexan-3-yl)amino)-5-fluoro-2-((6-methoxyquinolin-3-yl)amino)nicotinamide] | 65 to 130 | < 10 |
| CCC[C@@H](Nc1nc(Nc2ccc3cccnc3c2)c(C(N)=O)cc1F)[C@H](C)N [Example 006-244, 6-(((2S,3R)-2-aminohexan-3-yl)amino)-5-fluoro-2-((quinolin-7-yl)amino)nicotinamide] | 65 to 130 | < 10 |
| CCC[C@@H](Nc1nc(Nc2ccc3nc(C)cnc3c2)c(C(N)=O)cc1F)[C@H](C)N [Example 006-245, 6-(((2S,3R)-2-aminohexan-3-yl)amino)-5-fluoro-2-((2-methylquinoxalin-6-yl)amino)nicotinamide] | 65 to 130 | < 10 |
| CCC[C@@H](Nc1nc(Nc2cncc(-c3ccccc3)c2)c(C(N)=O)cc1F)[C@H](C)N [Example 006-247, 6-(((2S,3R)-2-aminohexan-3-yl)amino)-5-fluoro-2-((5-phenylpyridin-3-yl)amino)nicotinamide] | 130 to 200 | < 10 |
| CCC[C@@H](Nc1nc(Nc2cc(OC)nc(OC)c2)c(C(N)=O)cc1F)[C@H](C)N [Example 006-248, 6-(((2S,3R)-2-aminohexan-3-yl)amino)-2-((2,6-dimethoxypyridin-4-yl)amino)-5-fluoronicotinamide] | 65 to 130 | < 10 |
| CCC[C@@H](Nc1nc(Nc2cnc(C)c(C3CC3)c2)c(C(N)=O)cc1F)[C@H](C)N [Example 006-250, 6-(((2S,3R)-2-aminohexan-3-yl)amino)-2-((5-cyclopropyl-6-methylpyridin-3-yl)amino)-5-fluoronicotinamide] | 130 to 200 | < 10 |
| CCC[C@@H](Nc1nc(Nc2cnc(C)c(-n3nccn3)c2)c(C(N)=O)cc1F)[C@H](C)N [Example 006-252, 6-(((2S,3R)-2-aminohexan-3-yl)amino)-5-fluoro-2-((6-methyl-5-(2H-1,2,3-triazol-2-yl)pyridin-3-yl)amino)nicotinamide] | 65 to 130 | < 10 |
| CCC[C@@H](Nc1nc(Nc2cnc(OC)c(-n3nccn3)c2)c(C(N)=O)cc1F)[C@H](C)N [Example 006-253, 6-(((2S,3R)-2-aminohexan-3-yl)amino)-5-fluoro-2-((6-methoxy-5-(2H-1,2,3-triazol-2-yl)pyridin-3-yl)amino)nicotinamide] | 130 to 200 | 10 to 50 |
| CC[C@@H](Nc1nc(Nc2cncc(C3CC3)c2)c(C(N)=O)cc1F)[C@H](C)N [Example 006-255, 6-(((2S,3R)-2-aminopentan-3-yl)amino)-2-((5-cyclopropylpyridin-3-yl)amino)-5-fluoronicotinamide] | 65 to 130 | < 10 |
| CC[C@@H](Nc1nc(Nc2ccnc(-c3ccco3)c2)c(C(N)=O)cc1F)[C@H](C)N [Example 006-256, 6-(((2S,3R)-2-aminopentan-3-yl)amino)-5-fluoro-2-((2-(furan-2-yl)pyridin-4-yl)amino)nicotinamide] | 65 to 130 | < 10 |
| CC[C@@H](Nc1nc(Nc2cccc3cccnc23)c(C(N)=O)cc1F)[C@H](C)N [Example 006-258, 6-(((2S,3R)-2-aminopentan-3-yl)amino)-5-fluoro-2-((quinolin-8-yl)amino)nicotinamide] | 130 to 200 | 50 to 100 |
| CC[C@@H](Nc1nc(Nc2ccc(N3CCOCC3)nc2)c(C(N)=O)cc1F)[C@H](C)N [Example 006-265, 6-(((2S,3R)-2-aminopentan-3-yl)amino)-5-fluoro-2-((6-morpholinopyridin-3-yl)amino)nicotinamide] | 130 to 200 | 10 to 50 |
| CC[C@@H](Nc1nc(Nc2cncc(F)c2)c(C(N)=O)cc1F)[C@H](C)N [Example 006-269, 6-(((2S,3R)-2-aminopentan-3-yl)amino)-5-fluoro-2-((5-fluoropyridin-3-yl)amino)nicotinamide] | 65 to 130 | 10 to 50 |
| CC[C@@H](Nc1nc(Nc2cnc(C)c(C3CC3)c2)c(C(N)=O)cc1F)[C@H](C)N [Example 006-272, 6-(((2S,3R)-2-aminopentan-3-yl)amino)-2-((5-cyclopropyl-6-methylpyridin-3-yl)amino)-5-fluoronicotinamide] | 65 to 130 | 10 to 50 |
| CCCC[C@H](CN)Nc1nc(Nc2ccc3ncccc3c2)c(C(N)=O)cc1F [Example 006-274, (R)-6-((1-aminohexan-2-yl)amino)-5-fluoro-2-(quinolin-6-ylamino)nicotinamide] | 65 to 130 | < 10 |

Other lines, results leading:

| IC50 (THP-1 cells) [nM] | IC50 [1] [nM] | SMILES |
| --- | --- | --- |
| < 65 | < 10 | CCC[C@@H](Nc1nc(Nc2ccc3c(cnn3CC)c2)c(C(N)=O)cc1F)[C@H](C)N [Example 006-237, 6-(((2S,3R)-2-aminohexan-3-yl)amino)-2-((1-ethyl-1H-indazol-5-yl)amino)-5-fluoronicotinamide] |
| < 65 | < 10 | CCC[C@@H](Nc1nc(Nc2cnc3cc(OCCOC)ccc3c2)c(C(N)=O)cc1F)[C@H](C)N [Example 006-238, 6-(((2S,3R)-2-aminohexan-3-yl)amino)-5-fluoro-2-((7-(2-methoxyethoxy)quinolin-3-yl)amino)nicotinamide] |
| < 65 | < 10 | CCC[C@@H](Nc1nc(Nc2ccc3c(OC)nccc3c2)c(C(N)=O)cc1F)[C@H](C)N [Example 006-239, 6-(((2S,3R)-2-aminohexan-3-yl)amino)-5-fluoro-2-((1-methoxyisoquinolin-6-yl)amino)nicotinamide] |
| < 65 | < 10 | CCC[C@@H](Nc1nc(Nc2ccc3nccnc3c2)c(C(N)=O)cc1F)[C@H](C)N [Example 006-240, 6-(((2S,3R)-2-aminohexan-3-yl)amino)-5-fluoro-2-((quinoxalin-6-yl)amino)nicotinamide] |
| 65 to 130 | < 10 | CCC[C@@H](Nc1nc(Nc2cncc3ccccc23)c(C(N)=O)cc1F)[C@H](C)N [Example 006-241, 6-(((2S,3R)-2-aminohexan-3-yl)amino)-5-fluoro-2-((isoquinolin-4-yl)amino)nicotinamide] |
| < 65 | < 10 | CCC[C@@H](Nc1nc(Nc2cccc3c2cnn3C)c(C(N)=O)cc1F)[C@H](C)N [Example 006-251, 6-(((2S,3R)-2-aminohexan-3-yl)amino)-5-fluoro-2-((1-methyl-1H-indazol-4-yl)amino)nicotinamide] |
| < 65 | < 10 | CC[C@@H](Nc1nc(Nc2cnc3cc(OCCOC)ccc3c2)c(C(N)=O)cc1F)[C@H](C)N [Example 006-259, 6-(((2S,3R)-2-aminopentan-3-yl)amino)-5-fluoro-2-((7-(2-methoxyethoxy)quinolin-3-yl)amino)nicotinamide] |
| < 65 | < 10 | CC[C@@H](Nc1nc(Nc2ccc3nccnc3c2)c(C(N)=O)cc1F)[C@H](C)N [Example 006-260, 6-(((2S,3R)-2-aminopentan-3-yl)amino)-5-fluoro-2-((quinoxalin-6-yl)amino)nicotinamide] |
| < 65 | < 10 | CC[C@@H](Nc1nc(Nc2ccc3cccnc3c2)c(C(N)=O)cc1F)[C@H](C)N [Example 006-261, 6-(((2S,3R)-2-aminopentan-3-yl)amino)-5-fluoro-2-((quinolin-7-yl)amino)nicotinamide] |
| < 65 | < 10 | CC[C@@H](Nc1nc(Nc2cncc3ccccc23)c(C(N)=O)cc1F)[C@H](C)N [Example 006-262, 6-(((2S,3R)-2-aminopentan-3-yl)amino)-5-fluoro-2-((isoquinolin-4-yl)amino)nicotinamide] |
| < 65 | < 10 | CC[C@@H](Nc1nc(Nc2cnc3ccc(OC)cc3c2)c(C(N)=O)cc1F)[C@H](C)N [Example 006-264, 6-(((2S,3R)-2-aminopentan-3-yl)amino)-5-fluoro-2-((6-methoxyquinolin-3-yl)amino)nicotinamide] |
| < 65 | < 10 | CC[C@@H](Nc1nc(Nc2ccnc(OC)c2)c(C(N)=O)cc1F)[C@H](C)N [Example 006-266, 6-(((2S,3R)-2-aminopentan-3-yl)amino)-5-fluoro-2-((2-methoxypyridin-4-yl)amino)nicotinamide] |
| < 65 | < 10 | CC[C@@H](Nc1nc(Nc2cc(OC)nc(OC)c2)c(C(N)=O)cc1F)[C@H](C)N [Example 006-267, 6-(((2S,3R)-2-aminopentan-3-yl)amino)-2-((2,6-dimethoxypyridin-4-yl)amino)-5-fluoronicotinamide] |
| < 65 | < 10 | CC[C@@H](Nc1nc(Nc2cccc3c2cnn3C)c(C(N)=O)cc1F)[C@H](C)N [Example 006-268, 6-(((2S,3R)-2-aminopentan-3-yl)amino)-5-fluoro-2-((1-methyl-1H-indazol-4-yl)amino)nicotinamide] |
| < 65 | < 10 | CC[C@@H](Nc1nc(Nc2ccc3nc(OCCOC)ccc3c2)c(C(N)=O)cc1F)[C@H](C)N [Example 006-271, 6-(((2S,3R)-2-aminopentan-3-yl)amino)-5-fluoro-2-((2-(2-methoxyethoxy)quinolin-6-yl)amino)nicotinamide] |
| < 65 | < 10 | C[C@H](N)[C@@H](C)Nc1nc(Nc2ccc3ncccc3c2)c(C(N)=O)cc1F [Example 006-275, 6-(((2R,3S)-3-aminobutan-2-yl)amino)-5-fluoro-2-((quinolin-6-yl)amino)nicotinamide] |
